Source: PubChem BioAssay AID2060613 (Molecular Pharmacology Branch, DTP, NCI, 2025)
Several values for one entry are separate records, joined by “and”; a condition that tells them apart may be missing. Equal entries are not always repeated. Each block holds one compound with its values, some of them ahead of it.

Test system: 233499-124-R-J3-PDC complex spheroid viability
Assay: Anticancer human tumor 233499-124-R-J3-PDC patient-derived colon adenocarcinoma cell line growth inhibition [CLK]
Conditions: for viability, T/C: stronger effect = lower value
How it was run: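 Multi-cell-type spheroids combined patient-derived tumor cells with HUVEC endothelial cells and human mesenchymal stem cells. Paired agents were dosed in half-log steps down from about clinical Cmax, or from 10 microM where Cmax was unknown.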
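Note: spheroids exposed to the drug combinations for seven days.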
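Throughout, for viability, T/C: percent viability relative to DMSO vehicle control wells taken as 100%.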

IC50 (curve of compound): 59.1 nM and 60.7 nM
Structure (SMILES): CC(=O)O[C@H]1C(=O)[C@@]2(C)[C@H]([C@H](OC(=O)c3ccccc3)[C@]3(O)C[C@H](OC(=O)[C@H](O)[C@@H](NC(=O)c4ccccc4)c4ccccc4)C(C)=C1C3(C)C)[C@]1(OC(C)=O)CO[C@@H]1C[C@@H]2O
viability, T/C (compound 0.0316 µM): 63.2% and 74.1%
viability, T/C (compound 0.1 µM): 38.9% and 31.5%
viability, T/C (compound 0.316 µM): 19.9% and 8.71%
viability, T/C (compound 1 µM): 17.4% and 11%
viability, T/C (compound 3.16 µM): 20.4% and 9.09%
viability, T/C (compound 10 µM): 24.4% and 16.4%

Structure (SMILES): CCc1c2c(nc3ccc(O)cc13)-c1cc3c(c(=O)n1C2)COC(=O)[C@]3(O)CC + CN1CCN(c2cc(C(=O)Nc3cc4cc(-c5cnn(C)c5)ccc4cn3)ccn2)CC1
IC50 (curve of first compound, second compound 0.0316 µM): 601 nM
IC50 (curve of first compound, second compound 0.1 µM): 463 nM
IC50 (curve of first compound, second compound 0.316 µM): 81.4 nM
IC50 (curve of first compound, second compound 1 µM): < 3.16 nM
IC50 (curve of first compound, second compound 3.16 µM): < 3.16 nM
IC50 (curve of first compound, second compound 10 µM): < 3.16 nM
viability, T/C (second compound 0.0316 µM, first compound 0.00316 µM): 95.4%
viability, T/C (second compound 0.0316 µM, first compound 0.01 µM): 65.8%
viability, T/C (second compound 0.0316 µM, first compound 0.0316 µM): 81.8%
viability, T/C (second compound 0.0316 µM, first compound 0.1 µM): 87.3%
viability, T/C (second compound 0.0316 µM, first compound 0.316 µM): 60.5%
viability, T/C (second compound 0.0316 µM, first compound 1 µM): 41.7%
viability, T/C (second compound 0.1 µM, first compound 0.00316 µM): 85.6%
viability, T/C (second compound 0.1 µM, first compound 0.01 µM): 82.5%
viability, T/C (second compound 0.1 µM, first compound 0.0316 µM): 88%
viability, T/C (second compound 0.1 µM, first compound 0.1 µM): 88.1%
viability, T/C (second compound 0.1 µM, first compound 0.316 µM): 60.7%
viability, T/C (second compound 0.1 µM, first compound 1 µM): 28.4%
viability, T/C (second compound 0.316 µM, first compound 0.00316 µM): 88%
viability, T/C (second compound 0.316 µM, first compound 0.01 µM): 80.9%
viability, T/C (second compound 0.316 µM, first compound 0.0316 µM): 58.5%
viability, T/C (second compound 0.316 µM, first compound 0.1 µM): 58.5%
viability, T/C (second compound 0.316 µM, first compound 0.316 µM): 14.1%
viability, T/C (second compound 0.316 µM, first compound 1 µM): 9.37%
viability, T/C (second compound 1 µM, first compound 0.00316 µM): 1.6%
viability, T/C (second compound 1 µM, first compound 0.01 µM): 0.5%
viability, T/C (second compound 1 µM, first compound 0.0316 µM): 0.39%
viability, T/C (second compound 1 µM, first compound 0.1 µM): 0.38%
viability, T/C (second compound 1 µM, first compound 0.316 µM): 0.35%
viability, T/C (second compound 1 µM, first compound 1 µM): 0.47%
viability, T/C (second compound 3.16 µM, first compound 0.00316 µM): 0.46%
viability, T/C (second compound 3.16 µM, first compound 0.01 µM): 0.5%
viability, T/C (second compound 3.16 µM, first compound 0.0316 µM): 0.59%
viability, T/C (second compound 3.16 µM, first compound 0.1 µM): 0.52%
viability, T/C (second compound 3.16 µM, first compound 0.316 µM): 0.63%
viability, T/C (second compound 3.16 µM, first compound 1 µM): 0.55%
viability, T/C (second compound 10 µM, first compound 0.00316 µM): 0.36%
viability, T/C (second compound 10 µM, first compound 0.01 µM): 0.33%
viability, T/C (second compound 10 µM, first compound 0.0316 µM): 0.32%
viability, T/C (second compound 10 µM, first compound 0.1 µM): 0.37%
viability, T/C (second compound 10 µM, first compound 0.316 µM): 0.42%
viability, T/C (second compound 10 µM, first compound 1 µM): 0.3%
